Active and inactive are the calls of the source. The rule behind the calls is not given here.
Columns and labels:
[1] = biological target: T1, Cell division protein FtsZ (Staphylococcus aureus) (UniProt P0A031); assay: Effect on FtsZ GTPase activity in methicillin-resistant Staphylococcus aureus ATCC43300 upto 8 microg/ml incubated for 30 mins by malachite green phosphate based assay; settings: dose <= 8.0 µg/ml
T1 sequence (whole entry): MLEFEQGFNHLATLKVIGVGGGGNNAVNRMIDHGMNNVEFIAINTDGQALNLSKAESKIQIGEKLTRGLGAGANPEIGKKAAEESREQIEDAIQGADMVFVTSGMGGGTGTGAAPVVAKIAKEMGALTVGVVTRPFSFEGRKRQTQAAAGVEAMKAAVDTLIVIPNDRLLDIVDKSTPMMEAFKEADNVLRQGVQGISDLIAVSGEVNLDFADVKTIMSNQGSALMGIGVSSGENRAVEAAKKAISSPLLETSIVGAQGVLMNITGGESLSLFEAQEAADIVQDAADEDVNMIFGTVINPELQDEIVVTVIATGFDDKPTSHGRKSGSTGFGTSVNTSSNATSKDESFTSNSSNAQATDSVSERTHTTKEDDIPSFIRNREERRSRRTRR

[2] = test system: Staphylococcus aureus; assay: Bactericidal activity against methicillin-resistant Staphylococcus aureus ATCC43300 incubated for 24 hrs by CLSI protocol based microbroth dilution method; format: functional
[3] = test system: Cell membrane; assay: Disruption of cell membrane integrity in penicillin-susceptible Escherichia coli ATCC25922 assessed as cell deformation at 4 times of MIC incubated for 2 hrs by transmission electron microscopic analysis; format: cell membranes
[4] = biological target: T2, Cell division protein FtsZ (Escherichia coli K-12) (UniProt P0A9A6); assay: Induction of recombinant FtsZ polymerization in penicillin-susceptible Escherichia coli ATCC25922 assessed as bundling of FtsZ protofilaments at 1 to 4 microg/ml incubated for 10 mins by light scattering assay; settings: filed as activator, dose 1-4 µg/ml
T2 sequence (whole entry): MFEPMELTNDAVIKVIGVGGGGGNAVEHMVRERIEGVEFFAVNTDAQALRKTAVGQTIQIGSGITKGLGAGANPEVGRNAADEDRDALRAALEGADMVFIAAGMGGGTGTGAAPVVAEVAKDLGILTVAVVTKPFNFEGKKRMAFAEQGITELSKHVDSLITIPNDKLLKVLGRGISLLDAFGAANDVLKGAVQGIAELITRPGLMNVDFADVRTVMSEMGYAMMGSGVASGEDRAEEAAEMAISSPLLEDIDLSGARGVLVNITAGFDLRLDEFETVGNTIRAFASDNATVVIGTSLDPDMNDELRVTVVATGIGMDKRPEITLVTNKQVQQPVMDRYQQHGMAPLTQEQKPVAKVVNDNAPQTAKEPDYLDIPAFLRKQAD

[5] = biological target: T2, Cell division protein FtsZ (Escherichia coli K-12); assay: Induction of FtsZ polymerization in penicillin-susceptible Escherichia coli ATCC25922 assessed as bundling of FtsZ protofilaments at 4 microg/ml preincubated for 10 mins followed by GTP addition and measured after 15 mins by transmission electron microscopic analysis; settings: filed as activator, dose 4.0 µg/ml, time 25.0 min
[6] = test system: Cell membrane; assay: Disruption of cell membrane integrity in methicillin-resistant Staphylococcus aureus ATCC43300 assessed as morphological deformation at 4 times of MIC incubated for 2 hrs by transmission electron microscopic analysis; format: cell membranes
[7] = test system: Pseudomonas aeruginosa; assay: Antibacterial activity against Pseudomonas aeruginosa BNCC337940 assessed as inhibition of bacterial growth incubated for 18 hrs by CLSI protocol based microbroth dilution method; format: functional
[8] = test system: Staphylococcus aureus; assay: Induction of morphological changes in methicillin-resistant Staphylococcus aureus ATCC43300 assessed as swelling at 0.5 times of MIC incubated for 4 hrs by optical microscopic analysis; format: functional, organism-based
[9] = test system: Staphylococcus aureus; assay: Antibacterial activity against methicillin-resistant Staphylococcus aureus ATCC43300 assessed as inhibition of bacterial growth incubated for 18 hrs by CLSI protocol based microbroth dilution method; format: functional
[10] = test system: Erythrocyte; assay: Hemolytic activity in human erythrocytes at 0.195 to 25 microg/ml incubated for 1 hrs by absorbance based assay; format: toxicity, cell-based; settings: dose 0.195-25 µg/ml
[11] = test system: Staphylococcus aureus; assay: Inhibition of biofilm formation in methicillin-resistant Staphylococcus aureus ATCC43300 incubated for 24 hrs by crystal violet staining based analysis; format: functional, organism-based; settings: dose 0.78-100 µg/ml
[12] = biological target: T1, Cell division protein FtsZ (Staphylococcus aureus); assay: Induction of FtsZ polymerization in methicillin-resistant Staphylococcus aureus ATCC43300 assessed as bundling of FtsZ protofilaments at 4 microg/ml preincubated for 10 mins followed by GTP addition and measured after 15 mins by transmission electron microscopic analysis; settings: filed as activator, dose 4.0 µg/ml, time 25.0 min
[13] = test system: Staphylococcus aureus; assay: Antibacterial activity against methicillin-resistant Staphylococcus aureus ATCC43300 assessed as reduction in bacterial count at 2 times of MIC incubated for 24 hrs by time kill kinetics assay; format: functional, organism-based
[14] = test system: Cell membrane; assay: Disruption of cell membrane integrity in methicillin-resistant Staphylococcus aureus ATCC43300 assessed as ghost cell formation at 4 times of MIC incubated for 2 hrs by transmission electron microscopic analysis; format: cell membranes
[15] = biological target: T1, Cell division protein FtsZ (Staphylococcus aureus); assay: Induction of FtsZ polymerization in methicillin-resistant Staphylococcus aureus ATCC43300 assessed as increase in size of assembly at 4 microg/ml preincubated for 10 mins followed by GTP addition and measured after 15 mins by transmission electron microscopic analysis; settings: filed as activator, dose 4.0 µg/ml, time 25.0 min
[16] = test system: Escherichia coli; assay: Antibacterial activity against penicillin-susceptible Escherichia coli ATCC25922 assessed as inhibition of bacterial growth incubated for 18 hrs by CLSI protocol based microbroth dilution method; format: functional
[17] = test system: Bacillus subtilis; assay: Induction of morphological changes in Bacillus subtilis BNCC336690 assessed as cell elongation by measuring cell length at 0.5 times of MIC incubated for 4 hrs by optical microscopic analysis; format: functional
[18] = biological target: T2, Cell division protein FtsZ (Escherichia coli K-12); assay: Induction of FtsZ polymerization in penicillin-susceptible Escherichia coli ATCC25922 assessed as thicker bundles at 4 microg/ml preincubated for 10 mins followed by GTP addition and measured after 15 mins by transmission electron microscopic analysis; settings: filed as activator, dose 4.0 µg/ml, time 25.0 min
[19] = biological target: T2, Cell division protein FtsZ (Escherichia coli K-12); assay: Induction of recombinant FtsZ polymerization in penicillin-susceptible Escherichia coli ATCC25922 assessed as stabilization of FtsZ bundles at 1 to 4 microg/ml incubated for 10 mins by light scattering assay; settings: filed as activator, dose 1-4 µg/ml
[20] = biological target: T1, Cell division protein FtsZ (Staphylococcus aureus); assay: Induction of recombinant FtsZ polymerization in methicillin-resistant Staphylococcus aureus ATCC43300 assessed as bundling of FtsZ protofilaments at 1 to 4 microg/ml measured within 5 mins by light scattering assay; settings: filed as activator, dose 1-4 µg/ml
[21] = test system: Staphylococcus aureus; assay: Selectivity ratio of MBC for bactericidal activity against methicillin-resistant Staphylococcus aureus ATCC43300 to MIC for antibacterial activity against methicillin-resistant Staphylococcus aureus ATCC43300; format: functional
[22] = biological target: T1, Cell division protein FtsZ (Staphylococcus aureus); assay: Induction of FtsZ polymerization in methicillin-resistant Staphylococcus aureus ATCC43300 assessed as increase in thickness of assembly at 4 microg/ml preincubated for 10 mins followed by GTP addition and measured after 15 mins by transmission electron microscopic analysis; settings: filed as activator, dose 4.0 µg/ml, time 25.0 min
[23] = biological target: T1, Cell division protein FtsZ (Staphylococcus aureus); assay: Induction of recombinant FtsZ polymerization in methicillin-resistant Staphylococcus aureus ATCC43300 assessed as bundling of FtsZ protofilaments by measuring fold increase in maximal intensity at 4 microg/ml measured after 10 mins by light scattering assay; settings: filed as activator, dose 4.0 µg/ml
[24] = test system: Escherichia coli; assay: Induction of morphological changes in penicillin-susceptible Escherichia coli ATCC25922 assessed as cell elongation at 0.5 times of MIC incubated for 4 hrs by optical microscopic analysis; format: functional, organism-based

Compound: O=C1c2ccccc2-[n+]2ccc3c([nH]c4ccc(-c5ccccc5Cl)cc43)c21.[Cl-]
- Activity [1]: inactive
- MBC [2]: 1.56 µg/mL
- Activity [3]: Active
- Activity [4]: Active
- Activity [5]: Active
- Activity [6]: Active
- MIC [7]: > 200 µg/mL
- Activity [8]: Active
- MIC [9]: 1.56 µg/mL
- Activity [10]: Non-Toxic
- inhibition [11]: Dose-Dependent Effect
- Activity [12]: Active
- Activity [13]: Active
- Activity [14]: Active
- Activity [15]: Active
- MIC [16]: 12.5 µg/mL
- Activity [17]: >50 um
- Activity [18]: Active
- Activity [19]: Active
- Activity [20]: Active
- Selectivity ratio [21]: 1
- Activity [22]: Active
- fold change (FC) [23]: 2
- Activity [24]: Active

Compound: O=C1c2ccccc2-[n+]2ccc3c([nH]c4ccc(-c5ccccc5F)cc43)c21.[Cl-]
- Activity [1]: inactive
- MBC [2]: 0.195 µg/mL
- Activity [3]: Active
- Activity [4]: Active
- Activity [5]: Active
- Activity [6]: Active
- MIC [7]: > 200 µg/mL
- Activity [8]: Active
- MIC [9]: 0.195 µg/mL
- Activity [10]: Non-Toxic
- inhibition [11]: Dose-Dependent Effect
- Activity [12]: Active
- Activity [13]: Active
- Activity [14]: Active
- Activity [15]: Active
- MIC [16]: 6.25 µg/mL
- Activity [17]: >50 um
- Activity [18]: Active
- Activity [19]: Active
- Activity [20]: Active
- Selectivity ratio [21]: 1
- Activity [22]: Active
- fold change (FC) [23]: 2
- Activity [24]: Active

Compound: O=C1c2ccccc2-[n+]2ccc3c([nH]c4ccc(-c5ccccc5C(F)(F)F)cc43)c21.[Cl-]
- Activity [1]: inactive
- MBC [2]: 1.56 µg/mL
- Activity [3]: Active
- Activity [4]: Active
- Activity [5]: Active
- Activity [6]: Active
- MIC [7]: > 200 µg/mL
- Activity [8]: Active
- MIC [9]: 1.56 µg/mL
- Activity [10]: Non-Toxic
- inhibition [11]: Dose-Dependent Effect
- Activity [12]: Active
- Activity [13]: Active
- Activity [14]: Active
- Activity [15]: Active
- MIC [16]: 12.5 µg/mL
- Activity [17]: >50 um
- Activity [18]: Active
- Activity [19]: Active
- Activity [20]: Active
- Selectivity ratio [21]: 1
- Activity [22]: Active
- fold change (FC) [23]: 2
- Activity [24]: Active

Reference: ChEMBL document CHEMBL5500342, “Rational molecular design converting fascaplysin derivatives to potent broad-spectrum inhibitors against bacterial pathogens via targeting FtsZ” (Eur J Med Chem, 2024)
